Like-named read-outs stand apart in the source and are kept apart here.
Tested on: Human peripheral blood mononuclear cells
Assay: Human Concanavalin-A Proliferation Assay (Con HU Assay)
Assay type: cell-based
Conditions: concanavalin-A stimulated human PBMC; for IC50: tritiated thymidine
Procedure: Human peripheral blood mononuclear cells were cultured in RPMI 1640 medium supplemented with 10 μg/ml gentamicin, 50 μM 2-mercaptoethanol, 1X MEM non-essential amino acids (Sigma Chemical Co., St. Louis, Mo.), 100 U/ml sodium penicillin G, 100 μg/ml streptomycin sulfate, 2 mM L-glutamine, 1 mM sodium pyruvate (Life Technologies, Grand Island, N.Y.) and 10% fetal bovine serum (Hyclone, Logan, Utah) at 37° C. with 5% CO2.
The procedure in Current Protocols in Immunology, Volume 1, Published by the Greene Publishing Associates and John Wiley & Sons, Inc, Edited by Richard Coico, 1994, hereby incorporated by reference, was followed. Briefly, 50 ml of blood from human volunteers was collected in heparinized syringes and mixed. Blood was diluted 1:1 in Dulbecco's phosphate buffered saline (D-PBS) (Life Technologies, Grand Island, N.Y.) and mixed. PBS-blood mixture was overlaid into 50 ml centrifuge tubes containing 15 ml Histopaque 1077 (Sigma Chemical Co., St. Louis, Mo.) and centrifuged at 500 X G for 30 minutes at room temperature. Cells at the interface from each Histopaque tube were removed and mixed with 5 ml of D-PBS. Each cell suspension was diluted to 50 ml with D-PBS, mixed and centrifuged at 400 X G for 15 minutes at room temperature. After most of the supernatant was removed, cells were resuspended to 40 ml with D-PBS per tube (2 tubes per donor). Cells were centrifuged at 400 X G for 10 minutes at room temperature. Pellets were resuspended in 10 ml of supplemented RPMI 1640 and cell number determined with a Coulter counter. Cells were diluted to a concentration of 0.5×10^6 cells per mL.
The procedure in Current Protocols in Immunology, Volume 1, Published by the Greene Publishing Associates and John Wiley & Sons, Inc, Edited by Richard Coico, 1994, hereby incorporated by reference, was followed. Briefly, test compounds were added to appropriate wells on 96-well tissue culture plates (Corning Glass Works, Corning, N.Y.) in 20 µl of supplemented RPMI 1640. Human peripheral blood mononuclear cells were added to each well in 100 μl volumes (final cell concentration equal to 50,000 cells per well). After 15 minutes, 100 μl of 5 μg/ml concanavalin-A (Sigma Chemical Co., St. Louis, Mo.) in supplemented RPMI 1640 was added to a final concentration of 2.5 μg/ml. Plates were incubated for 3 days at 37° C. with 5% CO2. On day 3, plates were pulsed with 0.5 μCi/well tritiated thymidine (New England Nuclear, Boston, Mass.). After 6 hours, plates were harvested on a Tomatec 96-well havester (Orange, Conn.). Glass filter mats were counted on a Matrix 9600 direct beta counter (Packard, Meriden, Conn.).

[1] = concentration 100 μm (in parentheses in the cell), 3 days
[2] = Homo sapiens, PBMC, 72 h, concentration 10 μm (in parentheses in the cell), 3 days, read-out: % Inhibition of proliferation (at concentrations of 1,10, or 100 μm)
[3] = concentration 1 μm (in parentheses in the cell), 3 days
[4] = Homo sapiens, PBMC, 72 h, concentration 100 μm (in parentheses in the cell), 3 days, read-out: % Inhibition of proliferation (at concentrations of 1,10, or 100 μm)

Cn1cccc1-c1cc(OC(F)F)n(-c2ccc(NC(=O)c3ccncc3F)cc2)n1 [Example 360, N-(4-(5-(difluoromethoxy)-3-(1-methyl-1H-pyrrol-2-yl)-1H-pyrazol-1-yl)phenyl)-3-fluoroisonicotinamide]
IC50 (Homo sapiens, PBMC): 329 nM

Cc1nnsc1C(=O)Nc1ccc(-n2nc(-c3ccoc3)cc2Cl)cc1 [Example 355, N-(4-(5-chloro-3-(3-furyl)-1H-pyrazol-1-yl)phenyl)-4-methyl-1,2,3-thiadiazole-5-carboxamide]
IC50 (Homo sapiens, PBMC): 282 nM

CCCCCCCc1ccc(C(=O)Nc2ccc(-n3nc(C(F)(F)F)cc3C(F)(F)F)cc2)cc1 [Example 111, N-[4-[3,5-bis(trifluoromethyl)-1H-pyrazol-1-yl]phenyl]-4-heptybenzamide]
IC50: 41000 nM
% Inhibition of proliferation (at concentrations of 1,10, or 100 μm) [1]: 76(100) %

COc1ccc(C(=O)Nc2ccc(-n3nc(C(F)(F)F)cc3C(F)(F)F)cc2)cc1OC [Example 98, N-[4-[3,5-bis(trifluoromethyl)-1H-pyrazol-1-yl]phenyl]-3-4-dimethoxybenzamide]
IC50: 4920 nM
% Inhibition of proliferation (at concentrations of 1,10, or 100 μm) [1]: 94(100) %

N#Cc1cccc(/C=C\c2ccc(-n3nc(C(F)(F)F)cc3C(F)(F)F)cc2)c1 [Example 139, (Z)-3-[2-[4-[3,5-bis(trifluoromethyl)-1H-pyrazol-1-yl]phenyl]ethenyl]benzonitrile]
inhibition at 10 µM [2]: 5%

O=C(Nc1ccc(-n2nc(C(F)(F)F)cc2C(F)(F)F)cc1)C1C=CCCC1 (stereo not shown) [Example 53, N-[4-[3,5-bis(trifluoromethyl)-1H-pyrazol-1-yl]phenyl]-2-cyclohexane-1-carboxamide]
IC50: 202 nM
% Inhibition of proliferation (at concentrations of 1,10, or 100 μm) [1]: 99(100) %

O=C(Nc1ccc(-n2nc(C(F)(F)F)cc2C(F)(F)F)cc1)c1cc([N+](=O)[O-])c(Cl)c([N+](=O)[O-])c1Cl [Example 233, N-4-[3,5-bis(trifluoromethyl)-1H-pyrazol-1-yl]phenyl-2,4-dichloro-3,5-dinitrobenzamide]
IC50: 340 nM
% Inhibition of proliferation (at concentrations of 1,10, or 100 μm) (concentration 10 μm (in parentheses in the cell), 3 days): 100(10) %

Cc1nc(C)c(-c2cc(C(F)(F)F)n(-c3ccc(NC(=O)c4ccncc4F)cc3)n2)s1 [Example 343, N-(4-(3-(2,4-dimethyl-1,3-thiazol-5-yl)-5-(trifluoromethyl)-1H-pyrazol-1-yl)phenyl)-3-fluoroisonicotinamide]
IC50 (Homo sapiens, PBMC): 250 nM

O=C(Nc1ccc(-n2nc(C(F)(F)F)cc2C(F)(F)F)cc1)c1ccc(Br)cc1Cl [Example 217, N-[4-[3,5-bis(trifluoromethyl)-1H-pyrazol-1-yl]phenyl]-4-bromo-2-chlorobenzamide]
inhibition at 10 µM [2]: 100%
IC50 (Homo sapiens, PBMC): 218 nM

Cn1ccc(-c2cc(C(F)(F)F)nn2-c2ccc(NC(=O)c3ccncc3F)cc2)c1 [Example 344, 3-fluoro-N-(4-(5-(1-methyl-1H-pyrrol-3-yl)-3-(trifluoromethyl)-1H-pyrazol-1-yl)phenyl)isonicotinamide]
IC50 (Homo sapiens, PBMC): 251 nM

O=C(Nc1ccc(-n2nc(C(F)(F)F)cc2[N+](=O)[O-])cc1)c1ccncc1F [Example 333, 3-fluoro-N-(4-(5-nitro-3-(trifluoromethyl)-1H-pyrazol-1-yl)phenyl)isonicotinamide]
IC50 (Homo sapiens, PBMC): 410 nM

O=C(Nc1ccc(-n2nc(C(F)(F)F)cc2Br)cc1)c1ccncc1F [Example 332, N-(4-(5-bromo-3-(trifluoromethyl)-1H-pyrazol-1-yl)phenyl)-3-fluoroisonicotinamide]
IC50 (Homo sapiens, PBMC): 44 nM

O=C(Nc1ccc(-n2nc(C(F)(F)F)cc2C(F)(F)F)nc1)c1ccccc1F [Example 292, N-(6-(3,5-bis(trifluoromethyl)-1H-pyrazol-1-yl)-3-pyridinyl)-2-fluorobenzamide]
IC50 (Homo sapiens, PBMC): 258 nM

N#Cc1cc(-c2ccccn2)nn1-c1ccc(NC(=O)c2ccncc2F)cc1 [Example 330, N-(4-(5-cyano-3-(2-pyridinyl)-1H-pyrazol-1-yl)phenyl)-3-fluoroisonicotinamide]
IC50 (Homo sapiens, PBMC): 169 nM

O=C(Nc1ccc(-n2nc(C(F)(F)F)cc2C(F)(F)F)cc1)c1cc([N+](=O)[O-])cc([N+](=O)[O-])c1 [Example 134, N-[4-[3,5-bis(trifluoromethyl)-1H-pyrazol-1-yl]phenyl]-3,5-dinitrobenzamide]
inhibition at 100 µM (72 h, concentration 100 μm (in parentheses in the cell), 3 days, read-out: % Inhibition of proliferation (at concentrations of 1,10, or 100 μm)): 100%
IC50: 2770 nM

CC1CCC(C(=O)Nc2ccc(-n3nc(C(F)(F)F)cc3C(F)(F)F)cc2)CC1 (stereo not shown) [Example 54, N-[4-[3,5-bis(trifluoromethyl)-1H-pyrazol-1-yl]phenyl]-4-methylcyclohexanecarboxamide]
inhibition at 1 µM (Homo sapiens, PBMC, 72 h, concentration 1 μm (in parentheses in the cell), 3 days, read-out: % Inhibition of proliferation (at concentrations of 1,10, or 100 μm)): 12%

O=C(CCCNC(=O)OCc1ccccc1)Nc1ccc(-n2nc(C(F)(F)F)cc2C(F)(F)F)cc1 [Example 158]
% Inhibition of proliferation (at concentrations of 1,10, or 100 μm) [3]: 30(1) %

CC1CCCCC1C(=O)Nc1ccc(-n2nc(C(F)(F)F)cc2C(F)(F)F)cc1 (stereo not shown) [Example 27, N-[4-[3,5-bis(trifluoromethyl)-1H-pyrazol-1-yl]phenyl]-2-methylcyclohexanecarboxamide]
inhibition at 10 µM [2]: 100%
IC50 (Homo sapiens, PBMC): 299 nM

O=S(=O)(Nc1ccc(-n2nc(C(F)(F)F)cc2C(F)(F)F)cc1)c1cc(F)cc(F)c1 [Example 5, N-[4-[3,5-bis(trifluoromethyl)-1H-pyrazol-1-yl]phenyl]-3,5-difluorobenzenesulfonamide]
inhibition at 100 µM [4]: 100%
IC50 (Homo sapiens, PBMC): 33700 nM

O=C(Nc1ccc(-n2nc(C(F)(F)F)cc2C(F)(F)F)cc1)c1cncc(Br)c1 [Example 256, N-[4-[3,5-bis(trifluoromethyl)-1H-pyrazol-1-yl]phenyl]-5-bromo-3-pyridinecarboxamide]
inhibition at 10 µM [2]: 100%
IC50 (Homo sapiens, PBMC): 250 nM

O=C(Nc1ccc(-n2nc(C(F)(F)F)cc2C(F)(F)F)cc1)c1sccc1Br [Example 161, N-[4-[3,5-bis(trifluoromethyl)-1H-pyrazol-1-yl]phenyl]-3-bromo-2-thiophenecarboxamide]
inhibition at 100 µM [4]: 99%
IC50 (Homo sapiens, PBMC): 231 nM

O=C(Nc1ccc(-n2nc(C(F)(F)F)cc2C(F)(F)F)cn1)c1ccccc1F [Example 297, N-(5-(3,5-bis(trifluoromethyl)-1H-pyrazol-1-yl)-2-pyridinyl)-2-fluorobenzamide]
IC50 (Homo sapiens, PBMC): 251 nM

CC(C)(C)OC(=O)NCCCC(=O)Nc1ccc(-n2nc(C(F)(F)F)cc2C(F)(F)F)cc1 [Example 173, 1,1-Dimethylethyl [[4-[4-[3,5-bis(trifluoromethyl)-1H-pyrazol-1-yl]phenyl]amino]-4-oxobutyl]carbamate]
% Inhibition of proliferation (at concentrations of 1,10, or 100 μm) [3]: 28(1) %

O=C(Nc1ccc(-n2nc(C(F)(F)F)cc2C(F)(F)F)cc1)c1cc(Cl)cnc1Cl [Example 270, N-[4-[3,5-bis(trifluoromethyl)-1H-pyrazol-1-yl]phenyl]-2,5-dichloro-3-pyridinecarboxamide]
inhibition at 10 µM [2]: 100%
IC50 (Homo sapiens, PBMC): 228 nM

O=C(Nc1ccc(-n2nc(C(F)(F)F)cc2C(F)(F)F)cc1)C1CCCCC1 [Example 124, N-[4-[3,5-bis(trifluoromethyl)-1H-pyrazol-1-yl]phenyl]cyclohexanecarboxmide]
IC50: 285 nM
% Inhibition of proliferation (at concentrations of 1,10, or 100 μm) [1]: 99(100) %

CC(C)(C)OC(=O)N1CCC(C(=O)Nc2ccc(-n3nc(C(F)(F)F)cc3C(F)(F)F)cc2)CC1 [Example 120, 1,1-Dimethylethyl 4-[[[4-[3,5-bis(trifluoromethyl)-1H-pyrazol-1-yl]phenyl]amino]carbonyl]-1-piperidinecarboxylate]
inhibition at 100 µM [4]: 100%
IC50 (Homo sapiens, PBMC): 488 nM

O=C(Nc1ccc(-n2nc(-c3cncc(Br)c3)cc2OC(F)F)cc1)c1ccncc1F [Example 339, N-(4-(3-(5-bromo-3-pyridinyl)-5-(difluoromethoxy)-1H-pyrazol-1-yl)phenyl)-3-fluoroisonicotinamide]
IC50 (Homo sapiens, PBMC): 369 nM

From US20010044445A1, “AZOLE INHIBITORS OF CYTOKINE PRODUCTION” (priority 1999, published 2001)
